# Assay results taken from ChEMBL document CHEMBL1146758, “Design, synthesis and structure-activity relationship studies of novel indazole analogues as DNA gyrase inhibitors with Gram-positive antibacterial activity” (Bioorg Med Chem Lett, 2004).
# Test system: Enterococcus faecalis
# Experiment: Inhibitory activity against Enterococcus faecalis ATCC 29212
# Format: functional
# Settings: Enterococcus faecalis, ATCC 29212; read-out: MIC
row,Structure (SMILES),MIC [mg/L]
1,CNCc1n[nH]c2cccc(OCc3ccc(C(C)(C)C)cc3)c12,32
2,COC(=O)[C@@H]1C[C@H](NCc2n[nH]c3cccc(OCc4ccc(C(C)(C)C)cc4)c23)CN1,64
3,COC(=O)C1CCCC(Nc2[nH]nc3cccc(OCc4ccc(F)c(F)c4)c23)C1 (stereo not given),128
4,COC(=O)C1CN(Cc2n[nH]c3cccc(OCc4ccc(C(C)(C)C)cc4)c23)CCC1=O (stereo not given),> 128
5,CC(C)(C)c1ccc(COc2cccc3[nH]nc(NCCCC(=O)O)c23)cc1,> 128
6,COC(=O)C1CCCC(Nc2[nH]nc3cccc(OCc4cnc(Cl)c(Cl)c4)c23)C1 (stereo not given),> 128
7,CC(C)(C)c1ccc(COc2cccc3[nH]nc(CN[C@@H]4CN[C@H](CO)C4)c23)cc1,64
8,COC(=O)C1CCCC(Nc2[nH]nc3cccc(OCc4ccc(C(C)(C)C)cc4)c23)C1 (stereo not given),8
9,COC(=O)C1CCCC(NCc2cc(/C=C/c3ccc(Cl)c(Cl)c3)[nH]n2)C1 (stereo not given),16
10,COC(=O)C1CCCC(Nc2[nH]nc3cccc(OCc4ccc(Cl)c(Cl)c4)c23)C1 (stereo not given),4
11,COC(=O)C1CCCC(NCc2cc(/C=C\c3ccc(Cl)c(Cl)c3)[nH]n2)C1 (stereo not given),16
12,COC(=O)C1CCCN(Cc2n[nH]c3cccc(OCc4ccc(C(C)(C)C)cc4)c23)C1 (stereo not given),64
13,COC(=O)C1CCCC(Nc2[nH]nc3cccc(OCc4ccc(Cl)cc4)c23)C1 (stereo not given),64
14,CC(C)(C)c1ccc(COc2cccc3[nH]nc(CN4CCNCC4)c23)cc1,32
15,CCOC(=O)C1CCCN(Cc2n[nH]c3cccc(OCc4ccc(C(C)(C)C)cc4)c23)C1 (stereo not given),16
16,COC(=O)C1CCCC(NCc2cc(/C=C/c3cn(C)c4ccc(Cl)cc34)[nH]n2)C1 (stereo in doubt; 7bb),64

# Test system: Staphylococcus aureus
# Experiment: Inhibitory activity against Staphylococcus aureus FDA 209P
# Format: functional
# Settings: Staphylococcus aureus; read-out: MIC
row,Structure (SMILES),MIC [mg/L]
1,CNCc1n[nH]c2cccc(OCc3ccc(C(C)(C)C)cc3)c12,32
2,COC(=O)[C@@H]1C[C@H](NCc2n[nH]c3cccc(OCc4ccc(C(C)(C)C)cc4)c23)CN1,64
3,COC(=O)C1CCCC(Nc2[nH]nc3cccc(OCc4ccc(F)c(F)c4)c23)C1 (stereo not given),128
4,COC(=O)C1CN(Cc2n[nH]c3cccc(OCc4ccc(C(C)(C)C)cc4)c23)CCC1=O (stereo not given),> 128
5,CC(C)(C)c1ccc(COc2cccc3[nH]nc(NCCCC(=O)O)c23)cc1,> 128
6,COC(=O)C1CCCC(Nc2[nH]nc3cccc(OCc4cnc(Cl)c(Cl)c4)c23)C1 (stereo not given),> 128
7,CC(C)(C)c1ccc(COc2cccc3[nH]nc(CN[C@@H]4CN[C@H](CO)C4)c23)cc1,64
8,COC(=O)C1CCCC(Nc2[nH]nc3cccc(OCc4ccc(C(C)(C)C)cc4)c23)C1 (stereo not given),4
9,COC(=O)C1CCCC(NCc2cc(/C=C/c3ccc(Cl)c(Cl)c3)[nH]n2)C1 (stereo not given),4
10,COC(=O)C1CCCC(Nc2[nH]nc3cccc(OCc4ccc(Cl)c(Cl)c4)c23)C1 (stereo not given),4
11,COC(=O)C1CCCC(NCc2cc(/C=C\c3ccc(Cl)c(Cl)c3)[nH]n2)C1 (stereo not given),4
12,COC(=O)C1CCCN(Cc2n[nH]c3cccc(OCc4ccc(C(C)(C)C)cc4)c23)C1 (stereo not given),32
13,COC(=O)C1CCCC(Nc2[nH]nc3cccc(OCc4ccc(Cl)cc4)c23)C1 (stereo not given),32
14,CC(C)(C)c1ccc(COc2cccc3[nH]nc(CN4CCNCC4)c23)cc1,16
15,CCOC(=O)C1CCCN(Cc2n[nH]c3cccc(OCc4ccc(C(C)(C)C)cc4)c23)C1 (stereo not given),16
16,COC(=O)C1CCCC(NCc2cc(/C=C/c3cn(C)c4ccc(Cl)cc34)[nH]n2)C1 (stereo in doubt; 7bb),16

# Test system: Enterococcus faecalis
# Experiment: Inhibitory activity against Enterococcus faecalis KU 1777
# Format: functional
# Settings: Enterococcus faecalis; read-out: MIC
row,Structure (SMILES),MIC [mg/L]
1,CNCc1n[nH]c2cccc(OCc3ccc(C(C)(C)C)cc3)c12,16
2,COC(=O)[C@@H]1C[C@H](NCc2n[nH]c3cccc(OCc4ccc(C(C)(C)C)cc4)c23)CN1,64
3,COC(=O)C1CCCC(Nc2[nH]nc3cccc(OCc4ccc(F)c(F)c4)c23)C1 (stereo not given),128
4,COC(=O)C1CN(Cc2n[nH]c3cccc(OCc4ccc(C(C)(C)C)cc4)c23)CCC1=O (stereo not given),> 128
5,CC(C)(C)c1ccc(COc2cccc3[nH]nc(NCCCC(=O)O)c23)cc1,> 128
6,COC(=O)C1CCCC(Nc2[nH]nc3cccc(OCc4cnc(Cl)c(Cl)c4)c23)C1 (stereo not given),> 128
7,CC(C)(C)c1ccc(COc2cccc3[nH]nc(CN[C@@H]4CN[C@H](CO)C4)c23)cc1,64
8,COC(=O)C1CCCC(Nc2[nH]nc3cccc(OCc4ccc(C(C)(C)C)cc4)c23)C1 (stereo not given),4
9,COC(=O)C1CCCC(NCc2cc(/C=C/c3ccc(Cl)c(Cl)c3)[nH]n2)C1 (stereo not given),16
10,COC(=O)C1CCCC(Nc2[nH]nc3cccc(OCc4ccc(Cl)c(Cl)c4)c23)C1 (stereo not given),4
11,COC(=O)C1CCCC(NCc2cc(/C=C\c3ccc(Cl)c(Cl)c3)[nH]n2)C1 (stereo not given),16
12,COC(=O)C1CCCN(Cc2n[nH]c3cccc(OCc4ccc(C(C)(C)C)cc4)c23)C1 (stereo not given),32
13,COC(=O)C1CCCC(Nc2[nH]nc3cccc(OCc4ccc(Cl)cc4)c23)C1 (stereo not given),32
14,CC(C)(C)c1ccc(COc2cccc3[nH]nc(CN4CCNCC4)c23)cc1,16
15,CCOC(=O)C1CCCN(Cc2n[nH]c3cccc(OCc4ccc(C(C)(C)C)cc4)c23)C1 (stereo not given),16
16,COC(=O)C1CCCC(NCc2cc(/C=C/c3cn(C)c4ccc(Cl)cc34)[nH]n2)C1 (stereo in doubt; 7bb),32

# Test system: Staphylococcus aureus
# Experiment: Inhibitory activity against Staphylococcus aureus KMP9
# Format: functional
# Settings: Staphylococcus aureus; read-out: MIC
row,Structure (SMILES),MIC [mg/L]
1,CNCc1n[nH]c2cccc(OCc3ccc(C(C)(C)C)cc3)c12,64
2,COC(=O)[C@@H]1C[C@H](NCc2n[nH]c3cccc(OCc4ccc(C(C)(C)C)cc4)c23)CN1,64
3,COC(=O)C1CCCC(Nc2[nH]nc3cccc(OCc4ccc(F)c(F)c4)c23)C1 (stereo not given),128
4,COC(=O)C1CN(Cc2n[nH]c3cccc(OCc4ccc(C(C)(C)C)cc4)c23)CCC1=O (stereo not given),> 128
5,CC(C)(C)c1ccc(COc2cccc3[nH]nc(NCCCC(=O)O)c23)cc1,> 128
6,COC(=O)C1CCCC(Nc2[nH]nc3cccc(OCc4cnc(Cl)c(Cl)c4)c23)C1 (stereo not given),> 128
7,CC(C)(C)c1ccc(COc2cccc3[nH]nc(CN[C@@H]4CN[C@H](CO)C4)c23)cc1,64
8,COC(=O)C1CCCC(Nc2[nH]nc3cccc(OCc4ccc(C(C)(C)C)cc4)c23)C1 (stereo not given),4
9,COC(=O)C1CCCC(NCc2cc(/C=C/c3ccc(Cl)c(Cl)c3)[nH]n2)C1 (stereo not given),8
10,COC(=O)C1CCCC(Nc2[nH]nc3cccc(OCc4ccc(Cl)c(Cl)c4)c23)C1 (stereo not given),4
11,COC(=O)C1CCCC(NCc2cc(/C=C\c3ccc(Cl)c(Cl)c3)[nH]n2)C1 (stereo not given),8
12,COC(=O)C1CCCN(Cc2n[nH]c3cccc(OCc4ccc(C(C)(C)C)cc4)c23)C1 (stereo not given),64
13,COC(=O)C1CCCC(Nc2[nH]nc3cccc(OCc4ccc(Cl)cc4)c23)C1 (stereo not given),32
14,CC(C)(C)c1ccc(COc2cccc3[nH]nc(CN4CCNCC4)c23)cc1,32
15,CCOC(=O)C1CCCN(Cc2n[nH]c3cccc(OCc4ccc(C(C)(C)C)cc4)c23)C1 (stereo not given),32
16,COC(=O)C1CCCC(NCc2cc(/C=C/c3cn(C)c4ccc(Cl)cc34)[nH]n2)C1 (stereo in doubt; 7bb),16

# Molecular target: DNA gyrase (Escherichia coli, UniProt P0AES4+P0AES6)
# Experiment: Inhibitory activity against Escherichia coli DNA gyrase
# Format: protein-complex assay
# Settings: not given
row,Structure (SMILES),IC50 [µM]
1,CNCc1n[nH]c2cccc(OCc3ccc(C(C)(C)C)cc3)c12,198
2,COC(=O)[C@@H]1C[C@H](NCc2n[nH]c3cccc(OCc4ccc(C(C)(C)C)cc4)c23)CN1,18.3
3,COC(=O)C1CCCC(Nc2[nH]nc3cccc(OCc4ccc(F)c(F)c4)c23)C1 (stereo not given),38.5
4,COC(=O)C1CN(Cc2n[nH]c3cccc(OCc4ccc(C(C)(C)C)cc4)c23)CCC1=O (stereo not given),8.9
5,CC(C)(C)c1ccc(COc2cccc3[nH]nc(NCCCC(=O)O)c23)cc1,83.9
6,COC(=O)C1CCCC(Nc2[nH]nc3cccc(OCc4cnc(Cl)c(Cl)c4)c23)C1 (stereo not given),142
7,CC(C)(C)c1ccc(COc2cccc3[nH]nc(CN[C@@H]4CN[C@H](CO)C4)c23)cc1,157
8,COC(=O)C1CCCC(Nc2[nH]nc3cccc(OCc4ccc(C(C)(C)C)cc4)c23)C1 (stereo not given),9.18
9,COC(=O)C1CCCC(NCc2cc(/C=C/c3ccc(Cl)c(Cl)c3)[nH]n2)C1 (stereo not given),39.2
10,COC(=O)C1CCCC(Nc2[nH]nc3cccc(OCc4ccc(Cl)c(Cl)c4)c23)C1 (stereo not given),2.23
11,COC(=O)C1CCCC(NCc2cc(/C=C\c3ccc(Cl)c(Cl)c3)[nH]n2)C1 (stereo not given),39.2
12,COC(=O)C1CCCN(Cc2n[nH]c3cccc(OCc4ccc(C(C)(C)C)cc4)c23)C1 (stereo not given),36.7
13,COC(=O)C1CCCC(Nc2[nH]nc3cccc(OCc4ccc(Cl)cc4)c23)C1 (stereo not given),38.7
14,CC(C)(C)c1ccc(COc2cccc3[nH]nc(CN4CCNCC4)c23)cc1,169
15,CCOC(=O)C1CCCN(Cc2n[nH]c3cccc(OCc4ccc(C(C)(C)C)cc4)c23)C1 (stereo not given),17.8
16,COC(=O)C1CCCC(NCc2cc(/C=C/c3cn(C)c4ccc(Cl)cc34)[nH]n2)C1 (stereo in doubt; 7bb),2.34
